Laboratory results reported in ChEMBL document CHEMBL4043207, “Discovery of a novel, CNS penetrant M4 PAM chemotype based on a 6-fluoro-4-(piperidin-1-yl)quinoline-3-carbonitrile core” (Bioorg Med Chem Lett, 2017).

What was measured:
Plasma [1] = experiment: (§1) Fraction unbound in human plasma; type: ADME, cell-free
[2] = Fraction unbound in rat plasma; type: ADME, cell-free
[3] = Clearance in rat hepatocytes; type: ADME, cell-based, Hepatocyte
[4] = Clearance in human hepatocytes; type: ADME, cell-based, Hepatocyte
[5] = Fraction unbound in rat brain; type: ADME, tissue-based
[6] = Brain to plasma permeability coefficient, Kp of the compound in Sprague-Dawley rat at 0.1 to 0.2 mg/kg, iv administered as cassette dose after 25 mins; type: ADME, organism-based; conditions: brain and plasma
[7] = Ratio of unbound concentration in brain to plasma in Sprague-Dawley rat at 0.1 to 0.2 mg/kg, iv administered as cassette dose after 25 mins; type: ADME, organism-based; conditions: brain and plasma, read-out: K(p,uu,brain)
[8] = target: T1, Muscarinic acetylcholine receptor M4 (Homo sapiens, UniProt P08173); experiment: Positive allosteric modulation of human M4 receptor expressed in CHO cells co-expressing Gqi5 assessed as increase in acetylcholine-induced calcium mobilization; type: functional, cell-based
T1 sequence (P08173 whole entry): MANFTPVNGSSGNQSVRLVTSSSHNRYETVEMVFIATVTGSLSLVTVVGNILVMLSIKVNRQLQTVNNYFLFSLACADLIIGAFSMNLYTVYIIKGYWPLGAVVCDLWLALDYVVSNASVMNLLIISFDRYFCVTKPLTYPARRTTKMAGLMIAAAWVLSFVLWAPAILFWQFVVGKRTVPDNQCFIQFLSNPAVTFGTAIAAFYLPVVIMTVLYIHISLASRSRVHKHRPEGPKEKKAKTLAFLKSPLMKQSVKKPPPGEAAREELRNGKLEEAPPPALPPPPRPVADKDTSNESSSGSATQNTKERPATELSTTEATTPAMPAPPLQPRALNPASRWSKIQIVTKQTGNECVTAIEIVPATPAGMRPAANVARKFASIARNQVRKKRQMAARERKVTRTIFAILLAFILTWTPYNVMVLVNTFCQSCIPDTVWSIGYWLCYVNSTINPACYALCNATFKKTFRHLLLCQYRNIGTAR

[9] = target: T2, Muscarinic acetylcholine receptor M4 (Homo sapiens) (UniProt P08173); experiment: Positive allosteric modulation of human M4 receptor expressed in CHO cells co-expressing Gqi5 assessed as increase in acetylcholine-induced calcium mobilization relative to acetylcholine; type: functional, cell-based
T2 sequence (whole entry): T1 sequence (P08173 whole entry)

[10] = as §1; type: ADME, cell-free
[11] = target: T3, Muscarinic acetylcholine receptor M4 (Rattus norvegicus, UniProt P08485); experiment: Positive allosteric modulation of rat M4 receptor assessed as increase in acetylcholine-induced response
T3 sequence (P08485 whole entry): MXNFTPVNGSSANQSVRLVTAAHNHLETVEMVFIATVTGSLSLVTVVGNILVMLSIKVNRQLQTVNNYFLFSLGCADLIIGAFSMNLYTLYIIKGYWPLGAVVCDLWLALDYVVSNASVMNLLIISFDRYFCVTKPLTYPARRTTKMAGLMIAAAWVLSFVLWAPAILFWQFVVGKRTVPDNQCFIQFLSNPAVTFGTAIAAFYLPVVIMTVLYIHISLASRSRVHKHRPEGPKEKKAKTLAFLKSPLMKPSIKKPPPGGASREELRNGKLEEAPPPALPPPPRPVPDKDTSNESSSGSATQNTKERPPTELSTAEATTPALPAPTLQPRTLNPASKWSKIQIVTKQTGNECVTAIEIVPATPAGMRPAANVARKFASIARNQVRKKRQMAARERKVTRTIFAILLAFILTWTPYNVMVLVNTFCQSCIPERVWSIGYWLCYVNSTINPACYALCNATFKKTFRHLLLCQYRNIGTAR

[12] = Clearance in rat plasma at 0.2 mg/kg administered as iv cassette dose; type: ADME, organism-based
[13] = Half life in rat plasma at 0.2 mg/kg administered as iv cassette dose; type: ADME, organism-based
[14] = Volume of distribution at steady state in rat plasma at 0.2 mg/kg administered as iv cassette dose; type: ADME, organism-based; conditions: read-out: Vdss
[15] = Clearance in dog plasma at 0.2 mg/kg administered as iv cassette dose; type: ADME, organism-based, Canis lupus familiaris
[16] = Half life in dog plasma at 0.2 mg/kg administered as iv cassette dose; type: ADME, organism-based, Canis lupus familiaris
[17] = Volume of distribution at steady state in dog plasma at 0.2 mg/kg administered as iv cassette dose; type: ADME, organism-based, Canis lupus familiaris; conditions: read-out: Vdss
Plasma [18] = experiment: Fraction unbound in dog plasma at 0.2 mg/kg administered as iv casette dose; type: ADME, organism-based, Canis lupus familiaris; conditions: in vivo
MDR1 (P-gp) = experiment: Efflux ratio of apparent permeability in MDCK-MDR1 cells; type: ADME, cell-based, Canis lupus familiaris; conditions: dog
[19] = Apparent permeability in MDCK-MDR1 cells; type: ADME, cell-based, Canis lupus familiaris; conditions: dog
[20] = target: T4, Muscarinic acetylcholine receptor M4 (Rattus norvegicus) (UniProt P08485); experiment: Positive allosteric modulation of rat M4 receptor assessed as increase in acetylcholine-induced response relative to acetylcholine
T4 sequence (whole entry): T3 sequence (P08485 whole entry)

[21] = Ratio of unbound concentration in brain to plasma in rat; type: ADME
[22] = Brain to plasma permeability coefficient, Kp of the compound in rat; type: ADME

Structure (SMILES) | EC50 ([8]; read-out: EC50) | Emax [9] | EC50 ([8]; read-out: pEC50 (converted)) | further results
Cc1ccc(OC2CCN(c3ncnc4ccc(F)cc34)CC2)cn1 |  |  |  | Fu (Plasma [1]): 0.013; fraction unbound [2]: 0.011; CLhep predicted [3]: 67 mL/min/kg; CLhep predicted [4]: 20 mL/min/kg; fraction unbound [5]: 0.007; Kp at 25 min [6]: 1.16; Kp uu at 25 min [7]: 0.74
N#Cc1cnc2ccc(F)cc2c1N1CCC(C(=O)Nc2ccc(F)c(F)c2)CC1 | 565 nM | 52% |  | 
Cc1ccc(OC2CCN(c3ccnc4ccc(F)cc34)CC2)cn1 | 2210 nM | 62% | 2140 nM | 
Cc1ccc2ncc(C#N)c(N3CCC(Oc4ccc(C)nc4)CC3)c2c1 | 3020 nM | 67% | 2950 nM | 
N#Cc1cnc2ccc(F)cc2c1N1CCC(Oc2ccccc2)CC1 | 3260 nM | 81% |  | 
N#Cc1cnc2ccc(F)cc2c1N1CCC(Oc2ccc(F)nc2)CC1 | 512 nM | 83% | 490 nM | 
N#Cc1cnc2ccc(F)cc2c1N1CCC(Oc2cccnc2)CC1 | 1300 nM | 80% |  | 
Cc1ccc(OC2CCN(c3c(C#N)cnc4ccc(F)cc34)CC2)c(F)n1 | 5640 nM | 53% | 5370 nM | 
N#Cc1cnc2ccc(F)cc2c1N1CCC(C(=O)N2CCSCC2)CC1 | 1410 nM | 88% |  | 
COc1ccc2c(c1)CCN(C(=O)C1CCN(c3c(C#N)cnc4ccc(F)cc34)CC1)C2 | 648 nM | 76% |  | fraction unbound [10]: 0.011; fraction unbound [2]: 0.013; CLhep predicted [3]: 64 mL/min/kg; CLhep predicted [4]: 20 mL/min/kg; fraction unbound [5]: 0.007; Kp at 25 min [6]: 1.26; Kp uu at 25 min [7]: 0.68
COc1ccccc1CNC(=O)C1CCN(c2c(C#N)cnc3ccc(F)cc23)CC1 | 651 nM | 48% | 589 nM | 
Cc1ccc(OC2CCN(c3c(C#N)cnc4cc(F)c(F)cc34)CC2)cn1 | 571 nM | 92% | 562 nM | 
N#Cc1cnc2ccc(F)cc2c1N1CCC(C(=O)Nc2ccncn2)CC1 | 940 nM | 59% |  | 
Cc1ccc(OC2CCN(c3c(C#N)cnc4ccc(F)cc34)CC2)cn1 | 197 nM | 79% |  | EC50 [11]: 437 nM; clearance [12]: 36 mL/min/kg; half-life [13]: 1.7 h; Vd [14]: 3.2 L/kg; clearance [15]: 41 mL/min/kg; half-life [16]: 1.6 h; Vd [17]: 4 L/kg; Fu (Plasma [18]): 0.045; fraction unbound [10]: 0.024; fraction unbound [2]: 0.031; CLhep predicted [3]: 52 mL/min/kg; CLhep predicted [4]: 15 mL/min/kg; fraction unbound [5]: 0.014; Kp at 25 min [6]: 5.25 to 5.3; Kp uu at 25 min [7]: 2.37 to 2.4; efflux ratio (MDR1 (P-gp)): 1.1; Papp [19]: 28 ×10⁻⁶ cm/s; Emax [20]: 74%
Cc1cc(C)c(OC2CCN(c3c(C#N)cnc4ccc(F)cc34)CC2)cn1 | > 10000 nM |  | > 31600 nM | 
Cc1ccc(OC2CCN(c3c(C#N)cnc4c(C)cc(F)cc34)CC2)cn1 | 2070 nM | 82% |  | 

Structure (SMILES) | EC50 ([8]; read-out: EC50) | Emax [9] | EC50 ([8]; read-out: pEC50 (converted)) | further results
Cc1ccc(OC2CCN(c3c(C#N)cnc4c(F)cc(F)cc34)CC2)cn1 | 223 nM | 93% | 209 nM | 
N#Cc1cnc2ccc(F)cc2c1N1CCC(C(=O)Nc2ccccn2)CC1 | 912 nM | 44% | 871 nM | 
N#Cc1cnc2ccc(F)cc2c1N1CCC(C(=O)N2CCc3ccccc3C2)CC1 | 652 nM | 81% |  | 
COc1ccc(CNC(=O)C2CCN(c3c(C#N)cnc4ccc(F)cc34)CC2)cc1 | 664 nM | 60% | 617 nM | 
Cn1nccc1NC(=O)C1CCN(c2c(C#N)cnc3ccc(F)cc23)CC1 | 1760 nM | 81% | 1660 nM | 
N#Cc1cnc2ccc(F)cc2c1N1CCC(C(=O)N2CCOCC2)CC1 | 6440 nM | 78% |  | 
N#Cc1cnc2ccc(F)cc2c1N1CCC(C(=O)Nc2ccc(S(N)(=O)=O)cc2)CC1 | 248 nM | 63% | 229 nM | fraction unbound [10]: 0.064; fraction unbound [2]: 0.016; CLhep predicted [3]: 34 mL/min/kg; CLhep predicted [4]: 13 mL/min/kg; fraction unbound [5]: 0.01; Kp at 25 min [6]: 0.16; Kp uu at 25 min [7]: 0.1; efflux ratio (MDR1 (P-gp)): 83
N#Cc1cnc2ccc(F)cc2c1N1CCC(C(=O)Nc2ccncc2)CC1 | 147 nM | 73% |  | 
Cc1ccc(OC2CCN(c3c(C#N)cnc4ccc(F)cc34)CC2)c(C)n1 | > 10000 nM |  | > 31600 nM | 
N#Cc1cnc2ccc(F)cc2c1N1CCC(C(=O)Nc2cccnc2)CC1 | 619 nM | 68% |  | 
Cc1ccc(OC2CCN(c3c(C#N)cnc4ccc(Cl)cc34)CC2)cn1 | 905 nM | 72% |  | 
N#Cc1cnc2ccc(F)cc2c1N1CCC(C(=O)NCc2ccccc2)CC1 |  | 68 to 78% | 1230 nM | EC50 [11]: 2560 nM; fraction unbound [10]: 0.031; fraction unbound [2]: 0.028; CLhep predicted [3]: 61 mL/min/kg; CLhep predicted [4]: 17 mL/min/kg; Emax [20]: 49%
N#Cc1cnc2ccc(F)cc2c1N1CCC(Oc2ccc(Cl)nc2)CC1 | 577 nM | 80% | 562 nM | 
COc1ccc(CNC(=O)C2CCN(c3c(C#N)cnc4ccc(F)cc34)CC2)cc1F | 1090 nM | 65% | 1050 nM | K(p,uu,brain) [21]: 0.26; Kp [22]: 0.29; CLhep predicted [3]: 61 mL/min/kg; CLhep predicted [4]: 19 mL/min/kg
N#Cc1ccc(OC2CCN(c3c(C#N)cnc4ccc(F)cc34)CC2)cn1 | > 10000 nM | 49% |  | 
